From patent US11279687B2, “Compounds and compositions for the inhibition of NAMPT” (Valo Health, Inc., priority 2010, dated 2022) come the findings set out here.

Like-named read-outs stand apart in the source and are kept apart here.

The subject of one test is A2780 cells. Description: In-vitro cell proliferation assay (SRB), A2780 cells.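 Further: viable cell number read as SRB absorbance, background from media-only wells subtracted, IC50 interpolated from percent inhibition at two bracketing compound concentrations.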 To be noted: A2780 cells, 72 hours, SRB, read-out: A2780 IC50. Format: cell-based.
The target in the next test is NAMPT (Homo sapiens (Human), UniProt P43490). Put plainly: NAMPT biochemical inhibition assay (NMN quantified by mass spectrometry). The settings on record: NAMPT biochemical inhibition; read-out: Biochem IC50.
NAMPT, sequence (P43490 whole entry): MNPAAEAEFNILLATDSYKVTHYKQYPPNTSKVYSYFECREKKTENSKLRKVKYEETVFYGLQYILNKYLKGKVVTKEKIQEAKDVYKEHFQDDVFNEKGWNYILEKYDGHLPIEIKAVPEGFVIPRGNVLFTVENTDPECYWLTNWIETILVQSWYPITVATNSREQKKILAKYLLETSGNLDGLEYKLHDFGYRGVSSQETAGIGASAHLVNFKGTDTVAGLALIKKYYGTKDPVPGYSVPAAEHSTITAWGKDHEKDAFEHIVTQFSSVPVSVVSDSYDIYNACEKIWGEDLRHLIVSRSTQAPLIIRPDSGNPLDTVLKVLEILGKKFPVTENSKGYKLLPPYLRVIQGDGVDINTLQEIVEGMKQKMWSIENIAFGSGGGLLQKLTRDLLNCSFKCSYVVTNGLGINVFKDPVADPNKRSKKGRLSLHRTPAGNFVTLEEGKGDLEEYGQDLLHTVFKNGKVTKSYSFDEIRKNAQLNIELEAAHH

In the case of `O=C(NCc1cccnc1)Nc1ccc(S(=O)(=O)N2CCN(CCCN3CCOCC3)CC2)cc1` [1-(4-{4-[3-(morpholin-4-yl)propyl]piperazine-1-sulfonyl}phenyl)-3-(pyridin-3-ylmethyl)urea], the IC50 (usually the point on the concentration scale where inhibition reaches its midpoint) with A2780 cells (Homo sapiens, A2780, 72 h) was 24 nM; on NAMPT, 3 nM.
The like results for `O=C(NCc1cccnc1)Nc1ccc(S(=O)(=O)NCc2ccccc2Cl)cc1` [3-(4-{[(2-chlorophenyl)methyl]sulfamoyl}phenyl)-1-(pyridin-3-ylmethyl)urea] were, in that order, 201 nM and 3 nM.
For `COc1ccc(C(C)=O)cc1S(=O)(=O)c1ccc(NC(=O)NCc2cccnc2)cc1` [3-{4-[(5-acetyl-2-methoxybenzene)sulfonyl]phenyl}-1-(pyridin-3-ylmethyl)urea], in that order: 1.7 nM and 1.3 nM.
Take `O=C(NCc1cccnc1)Nc1ccc(S(=O)(=O)c2cccc3[nH]ccc23)cc1` [1-[4-(1H-indole-4-sulfonyl)phenyl]-3-(pyridin-3-ylmethyl)urea]: the IC50 with A2780 cells (Homo sapiens, A2780, 72 h) stood at 13.4 nM; on NAMPT it was 1.6 nM.
The like results for `O=C(NCc1cccnc1)Nc1ccc(S(=O)(=O)N2CCC3(CCCCC3)CC2)cc1` [1-(4-{3-azaspiro[5.5]undecane-3-sulfonyl}phenyl)-3-(pyridin-3-ylmethyl)urea] were, in that order, 145 nM and 11 nM.
As to `O=C(NCc1cccnc1)Nc1ccc(S(=O)(=O)c2ccncc2)cc1` [3-(pyridin-3-ylmethyl)-1-[4-(pyridine-4-sulfonyl)phenyl]urea], the half-maximal inhibitory concentration (IC50) in the test with A2780 cells (Homo sapiens, A2780, 72 h) was 488 nM; at NAMPT it was 11 nM.
For `O=C(NCc1cccnc1)Nc1ccc(S(=O)(=O)c2ccnc(N3CCOCC3)c2Cl)cc1` [3-{4-[3-chloro-2-(morpholin-4-yl)pyridine-4-sulfonyl]phenyl}-1-(pyridin-3-ylmethyl)urea], in that order: 14.2 nM and 4 nM.
In the case of `CCN(CC)C(=O)c1ccc(F)c(S(=O)(=O)c2ccc(NC(=O)NCc3cccnc3)cc2)c1` [N,N-diethyl-4-fluoro-3-[(4-{[(pyridin-3-ylmethyl)carbamoyl]amino[benzene)sulfonyl]benzamide], the concentration for half-maximal inhibition (IC50) in the test on A2780 cells came to 88.5 nM; on NAMPT it was 2.4 nM.
In the case of `CCN(C(C)=O)[C@H]1CCN(S(=O)(=O)c2ccc(NC(=O)NCc3cccnc3)cc2)C1` [N-ethyl-N-[(3S)-1-[(4-{[(pyridin-3-ylmethyl)carbamoyl]amino}benzene)sulfonyl]pyrrolidin-3-yl]acetamide], the concentration for half-maximal inhibition (IC50) came to 79 nM in the test on A2780 cells (Homo sapiens, A2780, 72 h) and 6 nM on NAMPT.
The like results for `CC(=O)c1ccc(S(=O)(=O)c2ccc(NC(=O)NCc3cccnc3)cc2)cc1` [3-{4-[(4-acetylbenzene)sulfonyl]phenyl}-1-(pyridin-3-ylmethyl)urea] were, in that order, 100 to 1000 nM and 2 nM.
For `CCNS(=O)(=O)c1cccc(S(=O)(=O)c2ccc(NC(=O)NCc3cccnc3)cc2)c1` [3-(4-{[3-(ethylsulfamoyl)benzene]sulfonyl}phenyl)-1-(pyridin-3-ylmethyl)urea], in that order: 100 to 1000 nM and 7.2 nM.
For `CN(C)c1ncc(S(=O)(=O)c2ccc(NC(=O)NCc3cccnc3)cc2)cn1` [3-{4-[2-(dimethylamino)pyrimidine-5-sulfonyl]phenyl}-1-(pyridin-3-ylmethyl)urea], in that order: 100 to 1000 nM and 5.9 nM.
Turning to `O=C(NCc1ccc2nccn2c1)c1ccc(S(=O)(=O)c2cc(F)cc(F)c2)cc1` [4-[(3,5-difluorobenzene)sulfonyl]-N-{imidazo[1,2-a]pyridin-6-ylmethyl}benzamide], the concentration for half-maximal inhibition (IC50) in the test on A2780 cells (Homo sapiens, A2780, 72 h) was found to be 5.71 nM; at NAMPT, 17.7 nM.
As to `Cc1cccc(C)c1S(=O)(=O)c1ccc(NC(=O)NCc2cccnc2)cc1` [3-{4-[(2,6-dimethylbenzene)sulfonyl]phenyl}-1-(pyridin-3-ylmethyl)urea], the IC50 in the test on A2780 cells (Homo sapiens, A2780, 72 h) came out at 387 nM; at NAMPT, 8 nM.
Turning to `Cc1noc(C)c1S(=O)(=O)c1ccc(NC(=O)NCc2cccnc2)cc1` [3-[4-(3,5-dimethyl-1,2-oxazole-4-sulfonyl)phenyl]-1-(pyridin-3-ylmethyl)urea], the IC50 with A2780 cells (Homo sapiens, A2780, 72 h) was 850 nM; at NAMPT, 20 nM.
For the compound `CC(C)Oc1ccccc1NS(=O)(=O)c1ccc(NC(=O)NCc2cccnc2)cc1` [3-(4-{[2-(propan-2-yloxy)phenyl]sulfamoyl}phenyl)-1-(pyridin] [3-(4-{[2-(propan-2-yloxy)phenyl]sulfamoyl}phenyl)-1-(pyridin-3-ylmethyl)urea], the half-inhibitory concentration (IC50) with A2780 cells worked out at 15 nM; on NAMPT, 2 nM.
As to `O=C(NCCc1cccnc1)c1ccc(S(=O)(=O)c2cccc(OC(F)(F)F)c2)cc1` [N-[2-(pyridin-3-yl)ethyl]-4-{[3-(trifluoromethoxy)benzene]sulfonyl}benzamide], the half-inhibitory concentration (IC50) in the test on A2780 cells (Homo sapiens, A2780, 72 h) amounted to 374 nM; at NAMPT, 9370 nM.
On to `O=C(NCc1cccnc1)Nc1ccc(S(=O)(=O)c2ccc(-c3ccccc3)cc2)cc1` [1-{4-[(4-phenylbenzene)sulfonyl]phenyl}-3-(pyridin-3-ylmethyl)urea], for which the IC50 in the test with A2780 cells (Homo sapiens, A2780, 72 h) was 100 to 1000 nM; at NAMPT, 5.8 nM.
For `Cc1cc(C)cc(NS(=O)(=O)c2ccc(NC(=O)NCc3cccnc3)cc2)c1` [3-{4-[(3,5-dimethylphenyl)sulfamoyl]phenyl}-1-(pyridin-3-ylmethyl)urea], in that order: 41 nM and 1 nM.
For the compound `O=C(NCc1cccnc1)Nc1ccc(S(=O)(=O)c2cc(OC(F)(F)F)ccc2Cl)cc1` [3-(4-{[2-chloro-5-(trifluoromethoxy)benzene]sulfonyl}phenyl)-1-(pyridin-3-ylmethyl)urea], the IC50 with A2780 cells (Homo sapiens, A2780, 72 h) was 100 to 1000 nM; on NAMPT, 6.3 nM.
For `O=C(NCc1cccnc1)Nc1ccc(S(=O)(=O)c2ccc3ncccc3c2)cc1` [3-(pyridin-3-ylmethyl)-1-[4-(quinoline-6-sulfonyl)phenyl]urea], the 50% inhibitory concentration (IC50) in the test on A2780 cells (Homo sapiens, A2780, 72 h) was 44.1 nM; at NAMPT, 2.7 nM.
With `CNC(=O)c1ccc(S(=O)(=O)c2ccc(NC(=O)NCc3cccnc3)cc2)cn1` [N-methyl-5-[(4-{[(pyridin-3-ylmethyl)carbamoyl]amino}benzene)sulfonyl]pyridine-2-carboxamide], the IC50 with A2780 cells (Homo sapiens, A2780, 72 h) worked out at 83.8 nM; on NAMPT, 3.8 nM.
For `O=C(NCc1cccnc1)Nc1ccc(S(=O)(=O)c2cc(F)cc(F)c2)cc1` [3-{4-[(3,5-difluorobenzene)sulfonyl]phenyl}-1-(pyridin-3-ylmethyl)urea], in that order: 284 nM and 3 nM.
For `O=C(NCc1cccnc1)Nc1ccc(S(=O)(=O)N2CCCC[C@@H]2Cc2ccccc2)cc1` [1-{4-[(2R)-2-benzylpiperidine-1-sulfonyl]phenyl}-3-(pyridin-3-ylmethyl)urea], the IC50 in the test on A2780 cells (Homo sapiens, A2780, 72 h) amounted to 24 nM; at NAMPT it was 4 nM.
Consider `CCN(CC)CCN1CCN(S(=O)(=O)c2ccc(NC(=O)NCc3cccnc3)cc2)CC1` [3-(4-{4-[2-(diethylamino)ethyl]piperazine-1-sulfonyl}phenyl)-1-(pyridin-3-ylmethyl)urea], for which the IC50 in the test with A2780 cells (Homo sapiens, A2780, 72 h) amounted to 23 nM; at NAMPT, 4 nM.
For `CC1CC(C)CN(S(=O)(=O)c2ccc(NC(=O)NCc3cccnc3)cc2)C1` (stereo not drawn) [1-[4-(3,5-dimethylpiperidine-1-sulfonyl)phenyl]-3-(pyridin-3-ylmethyl)urea], in that order: 14 nM and 6 nM.
For `CC1CCN(S(=O)(=O)c2ccc(NC(=O)NCc3cccnc3)cc2)CC(C)(C)C1` (stereo not drawn) [1-(pyridin-3-ylmethyl)-3-[4-(3,3,5-trimethylazepane-1-sulfonyl)phenyl]urea], in that order: 9.2 nM and 2 nM.
`COCCC1CCCN(S(=O)(=O)c2ccc(NC(=O)NCc3cccnc3)cc2)C1` (stereo not drawn) [3-{4-[3-(2-methoxyethyl)piperidine-1-sulfonyl]phenyl}-1-(pyridin-3-ylmethyl)urea]: the IC50 came out at 89 nM in the test on A2780 cells (Homo sapiens, A2780, 72 h) and 4 nM at NAMPT.
As for `O=C(NCc1ccc2nccn2c1)c1ccc(S(=O)(=O)c2cccc(OC(F)(F)F)c2)cc1` [N-{imidazo[1,2-a]pyridin-6-ylmethyl}-4-{[3-(trifluoromethoxy)benzene]sulfonyl}benzamide], the concentration for half-maximal inhibition (IC50) with A2780 cells (Homo sapiens, A2780, 72 h) came out at 1.8 nM; at NAMPT, 139 nM.
As for `COc1ccc(OC)c(S(=O)(=O)c2ccc(NC(=O)NCc3cccnc3)cc2)c1` [3-{4-[(2,5-dimethoxybenzene)sulfonyl]phenyl}-1-(pyridin-3-ylmethyl)urea], the IC50 stood at 7 nM in the test with A2780 cells (Homo sapiens, A2780, 72 h) and 1 nM at NAMPT.
Turning to `CCc1ccccc1S(=O)(=O)c1ccc(NC(=O)NCc2cccnc2)cc1` [3-{4-[(2-ethylbenzene)sulfonyl]phenyl}-1-(pyridin-3-ylmethyl)urea], the IC50 in the test with A2780 cells (Homo sapiens, A2780, 72 h) came out at 169 nM; at NAMPT, 2 nM.
Take `Cn1c(S(=O)(=O)c2ccc(NC(=O)NCc3cccnc3)cc2)cc2ccccc21` [3-[4-(1-methyl-1H-indole-2-sulfonyl)phenyl]-1-(pyridin-3-ylmethyl)urea]: the concentration for half-maximal inhibition (IC50) came to 63.5 nM in the test on A2780 cells (Homo sapiens, A2780, 72 h) and 3 nM on NAMPT.
As to `O=C(NCc1cccnc1)Nc1ccc(S(=O)(=O)N2CCC(F)(F)CC2)cc1` [1-[4-(4,4-difluoropiperidine-1-sulfonyl)phenyl]-3-(pyridin-3-ylmethyl)urea], the IC50 in the test on A2780 cells (Homo sapiens, A2780, 72 h) was determined as 299 nM; at NAMPT it was 25 nM.
For `O=C(NCCc1cccnc1)c1ccc(S(=O)(=O)Nc2cccc(OC(F)(F)F)c2)cc1` [N-[2-(pyridin-3-yl)ethyl]-4-{[3-(trifluoromethoxy)phenyl]sulfamoyl[benzamide], in that order: 1550 nM and 20500 nM.
Consider `O=C(NCc1cccnc1)Nc1ccc(S(=O)(=O)c2cccc(C(=O)NCCO)c2)cc1` [N-(2-hydroxyethyl)-3-[(4-{[(pyridin-3-ylmethyl)carbamoyl]amino[benzene)sulfonyl]benzamide], for which the values for the IC50 in the test on A2780 cells and on NAMPT were 100 to 1000 nM and 7.8 nM, respectively.
For `COc1cc(S(=O)(=O)c2ccc(NC(=O)NCc3cccnc3)cc2)ccc1C` [3-{4-[(3-methoxy-4-methylbenzene)sulfonyl]phenyl}-1-(pyridin-3-ylmethyl)urea], the IC50 was 17.9 nM with A2780 cells (Homo sapiens, A2780, 72 h) and 2.7 nM on NAMPT.
